# Experimental data reported in patent US11225507B2, “Conformation switchable antimicrobial peptides and methods of using the same” (priority 2017, dated 2022).
# Read-outs that look alike come from different tables or passages of the source.
# Tests used:
# E. coli DH5α = assay: Minimal inhibition concentration (MIC), E. coli DH5α; type: cell-based, Escherichia coli; conditions: pH 7.4
# Procedure: Minimal inhibition concentration (MIC). Gram-negative bacteria, DH5α and MG1655 (E. coli) were grown in LB medium at 37° C. For determination of the MIC, polypeptides were dissolved in media using serial dilutions from a stock solution. Into each well of a 96-well plate was added 200 μL of each concentration and 2 μL of bacteria (1×10^8 CFU (colony forming units)) in medium. The plate was incubated at 37° C. The optical density readings of microorganism solutions were measured after 24 h incubation. The MIC was considered as the lowest concentration of peptide where no visual growth of bacteria was detected.
# H. pylori SS1 = assay: H. pylori killing kinetics at various pHs (CFU counting, 1 h); type: cell-based, Helicobacter pylori
# Procedure: H. pylori killing kinetics at various pHs. The killing kinetics of polypeptides were measured against H. pylori by counting the colony forming units (CFU) of alive bacteria with agar plating. The polypeptides at various concentrations were dissolved in the Tris-HC buffer at various pHs (pH 7.4, 4.0, 3.0). H. pylori were then collected and dispersed in the BB medium supplied with fresh urea (10 mM) and 10% FBS at different pHs (pH 7.4, 4.0, 3.0). The optical density at 600 nm of the bacteria were fixed at 0.1. The bacteria were then incubated with the polypeptides solution at corresponding pH in the incubator supplied with 10% CO2 at 37° C. Samples were taken for a series of ten-fold dilutions, and plated out in BB agar plates with 10% FBS and vancomycin (pH 7.4) after 1 h incubation. The plates were incubated for 72 h in the incubator and the bacteria were counted for CFU. Bacteria incubated with Tris-HCl buffer only at corresponding pH were served as 100% survival. Survival rate (%)=CFU of bacteria treated with polypeptides/CFU of bacteria treated with buffer×100%. The killing kinetics of antibiotics (OAC, omeprazole, amoxicillin, clarithromycin) against H. pylori were determined with a similar procedure. The antibiotics at various concentrations were dissolved in the Tris-HCl buffer at pH 7.4, or 3.0, and were then incubated with H. pylori in BB medium supplied with fresh urea (10 mM) and 10% FBS at corresponding pH in the incubator. After 1 h incubation, the bacteria were collected by centrifuge at 10,000 rcf for 5 min and washed with fresh BB medium. Samples were then taken for a series of ten-fold dilutions, and plated out in BB agar plates with 10% FBS and vancomycin. The plates were incubated for 72 h in the incubator and the bacteria were counted for CFU.
# [1] = system: clinically isolated H. pylori strains, including clarithromycin-resistant J99A-7, J99A-11, J99C-8, and J99D-1; assay: Bactericidal activity against clinically isolated H. pylori strains; type: cell-based, Helicobacter pylori; conditions: pH 3.0, 1 h incubation, 4.4 μM
# Procedure: FIG. 3. HCT-AMPs effectively kill clinically isolated drug resistant H. pylori. (A) The bactericidal activity of PL2 against clinically isolated H. pylori strains. PL2, dissolved in the Tris-HCl buffer (pH 3.0), were incubated with clinically isolated strains in BB medium supplied with fresh urea, FBS and vancomycin (pH 3.0) for 1 h. The final concentration of PL2 was 4.4 μM. (B) The antibacterial activity of triple therapy against J99A-11 at pH 7.4 or 3.0. Concentrations of omeprazole, amoxicillin, and clarithromycin in OAC1 are 20.0 μM, 6.8 μM, and 1.9 μM, respectively; in OAC2 are 40.0 μM, 13.6 μM, and 3.8 μM, respectively; in OAC3 are 80.0 μM, 27.2 μM, and 7.6 μM, respectively (bars, left to right). (C) The antibacterial activity of omeprazole (0) and a combination of amoxicillin and clarithromycin (AC) against J99A-11 at pH 3.0. O1, O2, O3 represents the concentration of omeprazole at 20.0 μM, 40.0 μM, and 80.0 μM, respectively. AC1, AC2, AC3 represents the concentration of amoxicillin and clarithromycin at 6.8 μM and 1.9 μM, 13.6 μM and 3.8 μM, 27.2 μM and 7.6 μM, respectively.
# H. pylori killing kinetics at various pHs. The killing kinetics of polypeptides were measured against H. pylori by counting the colony forming units (CFU) of alive bacteria with agar plating. […] The plates were incubated for 72 h in the incubator and the bacteria were counted for CFU. […]
# [2] = Toxicity of PL2 in vivo after oral gavage; parameters: species or system mice; conditions: mouse
# Source text: Toxicity of PL2 in vivo. […] Mice were sacrificed on day 5, and the blood samples were collected for the analysis of alanine aminotransferase (ALT), aspartate aminotransferase (AST), creatinine, urea nitrogen, sodium ion and potassium ion levels. The colonic segment, stomach, liver, small intestine, kidney and feces of each mouse was gathered and homogenized with cold PBS (pH7.4). The stomachs were used to determine the expression of caspase 3 and caspase 8 using Caspase 3 Assay Kit (Sigma) and Caspase 8/FLICE Colorimetric Kit (Life technology), respectively. The colonic segment and feces were used to extract bacterial DNA. The stomach, small intestine, liver, and kidney were kept in formalin for H&E staining. The stomachs were also kept in formalin for terminal deoxynucleotidyl transferase dUTP nick end labeling (TUNEL) assay (S7100|ApopTag® Peroxidase In Situ Apoptosis Detection Kit). […] The inflammation and injury of stomach were scored by Dr. Liu in a blind manner based on the H&E staining. Inflammation was graded on a 0-3 ordinal scale based on the Sydney System as follows: chronic inflammation (mononuclear cell infiltration independent of lymphoid follicles); grade 0, no inflammation; grade 1, mild inflammation (slight increase in mononuclear cells); grade 2, moderate inflammation (dense but focal mononuclear inflammatory cells); and grade 3, severe inflammation (dense and diffuse mononuclear inflammatory cells). The appearance of the mucosa was graded as follows: 0, normal; 1, spotty changes in cellular staining characteristics of some surface epithelial cells in an otherwise normal mucosa (mild injury); 2, more generalized changes and/or disruption of the surface epithelium in several areas (moderate injury); 3, extensive mucosal destruction (severe injury).
# [3] = mouse, in vivo
# Procedure: In vivo and ex vivo biodistribution of Cy5-PL2. Cy5-PL2 (2.6 μmol/kg), Cy5-PDL2 (2.6 μmol/kg) and PBS were administrated by oral gavage. Mice were placed on the sample stage equipped with anesthesia input and output ports, and imaged by the Bruker Xtreme In-Vivo Fluorescence Imaging System at 1 h, 2 h, 4 h, 7 h, and 24 h post injection (p.i.). The excitation filter was set at 630 nm and the emission filter was set at 700 nm. Collected images were analyzed by the Bruker molecular imaging software. Stomach, intestines, liver, lung, kidneys, heart, and spleen were harvested at 4 h or 24 h p.i. of Cy5-PL2 and imaged ex vivo using the Bruker Xtreme In-Vivo Imaging System. Ex vivo images were quantified by measuring FI at selected region of interest (ROI). All values were expressed as means±standard deviation (n=3). […] The other half of the stomach were placed into separate glass tubes containing 2 mL of lysis buffer (1% SDS, 100 10 mM Tris.HCl, pH 7.4, 1 tablet of EDTA-free protease inhibitor), homogenized, and incubated at 4° C. for 2 h. The lysates were then centrifuged at 3000 rcf for 10 min to remove the insoluble cell debris, and measured on a fluorescence spectrometer to determine the amount of Cy5 retained in the tissues. The amount of Cy5 was calculated based on the standard curve of Cy5 FI and normalized to percentage of injected dose (% I.D.) per gram tissue.
substance,measurement,setting,value
(PGA)18-r-(PHLG-MHH)20 [PL2],minimal inhibitory concentration (MIC),E. coli DH5α,higher than 70 μM
same,bactericidal activity against SS1,"H. pylori SS1; pH 3.0, 1 h incubation",higher bactericidal activity
same,bactericidal activity against SS1,"H. pylori SS1; pH 4.0, 1 h incubation",notable bacteria killing
same,bactericidal activity against SS1,"H. pylori SS1; pH 7.4, 1 h incubation",no bactericidal activity
same,bacterial strains killed,[1],over 90%
same,ALT,[2],37.3 ± 0.5 U/L
same,AST,[2],120.3 ± 17.9 U/L
same,Creatinine,[2],8.7 ± 0.9 µM
same,Potassium ion,[2],8.1 ± 0.2 mM
same,Sodium ion,[2],149.4 ± 1.6 mM
same,Urea nitrogen,[2],6.8 ± 0.6 mM
same,"histology of intestines, liver, and kidney (H&E staining)",[2],barely detectable histological abnormality
same,gastric retention,[3],~6%
same,gastric retention,"[3]; po, 2.6 umol/kg, 4 h",~40 % ID/g
